Assay results published in patent US12539284B2, “Aminoxy acid-based anti-cancer stem cell compounds and methods thereof” (Westlake University, priority 2019, dated 2026).
Read-outs that look alike come from different tables or passages of the source.

How the values were obtained:
HEY A8 CSCs (HEY A8 SP) = assay: Toxicity / cell viability (CellTiter-Glo) on HEY A8 spheres (CSCs); type: cell-based, human; settings: for selectivity towards ovarian CSCs over ovarian cancer cells and normal cells: from IC50 values, FIG. 4 and Table 1
Description: Aminoxy acids were synthesized by the standard peptide coupling procedures. The CSCs are obtained by spheroids culturing under suspension condition. It is confirmed that these spheres indeed contain significant higher population of cells with CD133 antigenic phenotype, which has been reported can represent ovarian CSCs (FIG. 2). After treatment with compounds for 48 h, the cell viability of CSCs was measured by using CELLTITER-GLO® luminescent reagent. Compound sff-3-85 (“Example 2”) were used at the dose of 10 μM, all the other compounds were used at the concentration of 5 μM. All experiments were performed three times and data is presented as mean±SD.
(§1) Cell Cultures Human ovarian carcinoma cell lines HEY A8 and SKOV3 were gifts from Professor Alice Wong's group (The University of Hong Kong). Cells were grown in Dulbecco's Modified Eagle (DMEM) medium supplemented with 10% FBS and 1% penicillin/streptomycin at 37° C. in a humidified atmosphere containing […] CO2. Isolation and culture of spheres were performed in serum-free stem-cell-selective condition as described in literature Ip etl. Oncogene 2014, 5, 9133-9149. Briefly, 1-2 weeks after plating, non-adherent spherical clusters of cells could be observed and were separated from single cells by low speed centrifugation. After 8th to 10th passages, the non-adherent spherical clusters of cells appeared as distinct spheres. Using this selection condition, HEY A8 spheres (HEY A8 SP) or SKOV3 spheres (SKOV3 SP) could be enzymatically dissociated and reformed into spheres within 3 days under stem-cell-selective condition. To allow differentiation, dissociated sphere cells were plated on tissue culture plates in medium (MCDB 105:M199=1:1) supplemented with 10% FBS and 1% PS.
(§2) HEY A8 SP cells (5×10^4) were plated in triplicate in 10 mL serum-free MCDB105 medium in 100-mm Petri dish for 7 days to form spheres. Compound at the final concentration of 5 μM was added. The cells were further incubated at 37° C. for 48 h. After that cells were collected by centrifugation and the medium was removed. Then 100 μL CellTiter-Glo® Luminescent Cell Viability reagent was added into each tube, which was incubated for 10 min with shaking. After that, the reagent was transferred into 96-well plates and cell viability was measured using a microplate reader (SpectraMax 340PC 384, Molecular Devices).
as §2, with “A8 SP cells or SKOV3” for “A8”, “Then drugs” for “Compound”, “different” for “the final”, “were” for “of 5 μM was”, “μL of” for “μL”

HEY A8 cells = assay: Population of CD133+ cells by flow cytometry (PE-conjugated CD133 antibody); type: cell-based, human; settings: Paclitaxel 100 nM, 3 days; control 21.8%
Description: CD133 has been reported to be a marker of ovarian CSCs. After cells treated with synthetic molecule, the population of CD133^+ cells were measured. HEY A8 cells were treated with taxol (100 nM), compound sff-2-112 (“Example 1”) or sff-2-132 (“Example 4”) at the concentration of 15 μM. Medium containing 0.1% DMSO was used as a negative control.
A suspension of HEY A8 cells at the concentration of 2.5×10^4 cells/mL in DMEM medium were seeded into 60-mm cell culture dishes. Cells were incubated at 37° C. in a humidified atmosphere containing 5% CO2 for 24 h, followed by the addition of 4 mL fresh medium or medium containing Paclitaxel (100 nM), sff-2-112 (15 μM) or compound sff-2-132 (15 μM). Medium containing 0.1% DMSO was used as a negative control. After 3 days, the medium was removed and cells were washed with cold PBS twice, and then stained with PE-conjugated CD133 antibody according to the manufacture's instruction. The fluorescence was analyzed by flow cytometry.

HEY A8 CSCs [1] = assay: In vivo tumor seeding ability of pretreated HEY A8 CSCs; settings: CSCs pretreated 2 days in vitro, 10^6 cells injected subcutaneously in mice, 25 days
Description: In vivo tumor seeding ability of cells after treatment with compound sff-2-112 (“Example 1”) or sff-2-132 (“Example 4”) was evaluated. Taxol was used as a negative control. For this experiment, HEY A8 CSCs were pretreated with sff-2-112 (“Example 1”), sff-2-132 (“Example 4”) or Taxol for 2 days in suspension medium, respectively. Then cells were allowed to proliferate in full medium in the absence of drugs for 10 days. After that, 10^6 cells were injected into mice subcutaneously. Tumor size was measured for 25 days after injection.

HEY A8 cancer cells = assay: Cell viability (CellTiter-Glo) on adherent HEY A8 cancer cells; type: cell-based, human; settings: read-out: IC50 Cancer Cell HeyA8
Description: as §1
(§3) HEY A8 or SKOV3 cancer Cells were plated in triplicate in 0.1 mL full medium in 96-well plates for 24 h. After that, the medium was changed to the fresh prepared medium with various concentrations of compounds. Cells were incubated for another 48 h. Then the cell viability was measured by CellTiter-Glo® Luminescent Cell Viability reagent according to the manufacture's instruction. The luminescence at 550 nm was measured using a microplate reader (SpectraMax 340PC 384, Molecular Devices).

HEK293 = assay: Toxicity against normal cell line HEK293; type: cell-based
Text: (§4) Fourteen compounds including aminoxy acid monomers and dipeptides have been identified to show toxicity against HEY A8 CSCs. The half maximal inhibitory concentration (IC50) values of compounds sff-2-112, sff-2-124, sff-2-132 and sff-2-100 towards adherent cancer HEY A8, SKOV3 cells and CSCs were further determined. […] Especially compound sff-2-132, its selectivity to CSCs is up to 60-fold higher than that to cancer cells. Their toxicity against other normal cell lines NIH3T3, HEK293 and MDCK were also tested and the IC50 values were summarized in Table 1.

MDCK = assay: Toxicity against normal cell line MDCK; type: cell-based
Text: as §4

NIH3T3 = assay: Toxicity against normal cell line NIH3T3; type: cell-based
Text: as §4

SKOV3 cancer cells = assay: Cell viability (CellTiter-Glo) on adherent SKOV3 cancer cells; type: cell-based, human; settings: 48 h incubation
Description: as §1, §3

[2] = tested on: Huh 7 cancer stem cells (CD133+); assay: Cell viability (CellTiter-Glo) of sorted Huh 7 CD133+ cells; type: cell-based; settings: 48 h
Description: (§5) Huh-7 cells were stained with PE-conjugated CD133 antibody (HCC cancer stem cell marker) according to the manufacturer's instructions. Then CD133^+ cells (Huh 7 cancer stem cells) and CD133− cells were sorted by flow cytometry and seeded into 96-well plate with fresh DMEM medium. After 24 h, medium was changed to fresh medium with compound sff-2-112 (“Example 1”) or sff-2-124 (“Example 3”) at different doses. After 48 h, cell viability was analyzed by CellTiter-Glo luminescent agent.

Huh 7 CD133- cells = assay: Cell viability (CellTiter-Glo) of sorted Huh 7 CD133- cells; type: cell-based; settings: 48 h, different doses
Description: as §5

HEY A8 CSCs [3] = assay: Apoptosis, Annexin V / PI flow cytometry, CSCs; type: cell-based, human; settings: 5 μM, 2 days; DMSO 4.92%
Description: A suspension of HEY A8 cells at the concentration of 5×10^4 cells/mL in DMEM medium were seeded into 60-mm cell culture dishes. Cells were incubated at 37° C. in a humidified atmosphere containing 5% CO2 for 24 h followed by the addition of 4 mL fresh medium or medium containing compound sff-2-112 (“Example 1”) or sff-2-132 (“Example 4”) at different concentration. Medium containing 0.1% DMSO was used as negative control. After 2 days, the medium was aspirated and cells were washed with cold PBS twice, and then stained with PI and Annexin V according to the manufacture's instruction (Dead Cell Apoptosis Kit with Annexin V Alexa Fluor™ 488 & Propidium Iodide, Thermo Fisher). Cells were analyzed by flow cytometry (BD FACS CantoII Analyzer).

In the case of CCC(C)[C@@H](ONC(=O)c1cc(C(F)(F)F)cc(C(F)(F)F)c1)C(=O)Nc1ccccc1 (stereo partly shown) [Amy-1-4], the “cell viability of HEY A8 CSCs (toxicity)” value (HEY A8 CSCs (HEY A8 SP); compound 5 μM, 48 h) is reported as “significantly decreased the cell viability”.

O=C(NO[C@H](Cc1cc2ccccc2[nH]1)C(=O)Nc1ccccc1)c1cc(C(F)(F)F)cc(C(F)(F)F)c1 [Amy-1-8] was tested, and the “cell viability of HEY A8 CSCs (toxicity)” value (HEY A8 CSCs (HEY A8 SP); compound 5 μM, 48 h) was “significantly decreased the cell viability”.

In the case of O=C(NO[C@H](COCc1ccccc1)C(=O)NOc1ccccc1)c1cc(C(F)(F)F)cc(C(F)(F)F)c1 [FPM-1-187], the “cell viability of HEY A8 CSCs (toxicity)” value (HEY A8 CSCs (HEY A8 SP); compound 5 μM, 48 h) is reported as “significantly decreased the cell viability”.

CC(=O)O[C@H]1C(=O)[C@@]2(C)[C@H]([C@H](OC(=O)c3ccccc3)[C@]3(O)C[C@H](OC(=O)[C@H](O)[C@@H](NC(=O)c4ccccc4)c4ccccc4)C(C)=C1C3(C)C)[C@]1(OC(C)=O)CO[C@@H]1C[C@@H]2O [paclitaxel, reference compound] was tested, and the “population of CD133+ cells after treatment” value (HEY A8 cells) was 31.6% and the “tumor-seeding ability / tumor size of pretreated cells” value (HEY A8 CSCs [1]) was “resistant”.

In the case of O=C(NO[C@H](COCc1ccccc1)C(=O)NO[C@@H](Cc1ccccc1)C(=O)Nc1ccccc1)c1cc(C(F)(F)F)cc(C(F)(F)F)c1 [sff-2-100], the “rank of toxicity among the 14 molecules on HEY A8 CSCs” value (HEY A8 CSCs (HEY A8 SP); 5 μM, 48 h) is reported as “highest toxicity”, the IC50 (HEY A8 CSCs (HEY A8 SP); Homo sapiens, HEY A8 spheres, 48 h incubation, read-out: IC50 Cancer Stem Cell HeyA8 SP) is reported as 2.8 ± 0.9 µM and the “cell viability of HEY A8 CSCs (toxicity)” value (HEY A8 CSCs (HEY A8 SP); compound 5 μM, 48 h) is reported as “significantly decreased the cell viability”. For the same molecule, the “selectivity towards ovarian CSCs over ovarian cancer cells and normal cells” value (HEY A8 CSCs (HEY A8 SP)) was “selectively induce the death of ovarian CSCs”, the IC50 (HEY A8 cancer cells; Homo sapiens, HEY A8, 48 h incubation) was 22.4 ± 1 µM and the IC50 (HEK293; Homo sapiens, HEK293) was 18.3 ± 0.6 µM. It also gave an IC50 (MDCK; Canis lupus familiaris, MDCK) of 18 ± 0.7 µM and an IC50 (NIH3T3; Mus musculus, NIH3T3) of 2.8 ± 0.9 µM.

CC(C)C[C@@H](ONC(=O)c1cc(C(F)(F)F)cc(C(F)(F)F)c1)C(=O)Nc1ccccc1 [sff-2-124] was tested, and the “cell viability of HEY A8 CSCs (toxicity)” value (HEY A8 CSCs (HEY A8 SP); compound 5 μM, 48 h) was “significantly decreased the cell viability”, the “selectivity towards ovarian CSCs over ovarian cancer cells and normal cells” value (HEY A8 CSCs (HEY A8 SP)) was “selectively induce the death of ovarian CSCs” and the IC50 (HEY A8 cancer cells; 48 h incubation) was 20.8 ± 0.9 µM. It also gave an IC50 (SKOV3 cancer cells) of 18.6 ± 5.1 µM, an IC50 (HEK293) of 67.2 ± 4.2 µM and an IC50 (MDCK) of 13.2 ± 0.9 µM. The IC50 (NIH3T3) was 15.1 ± 0.5 µM, the “toxicity to huh7 CD133+ population compared with CD133- cells” value [2] was “higher” and the “death of Huh 7 CD133+ cells” value ([2]; different doses) was “induce the death”. The “death of Huh 7 CD133- cells” value (Huh 7 CD133- cells) was “induce the death”.

In the case of C[C@H](ONC(=O)c1cc(C(F)(F)F)cc(C(F)(F)F)c1)C(=O)Nc1ccccc1 [sff-3-85], the “cell viability of HEY A8 CSCs (toxicity)” value (HEY A8 CSCs (HEY A8 SP); compound 10 μM, 48 h) is reported as “significantly decreased the cell viability”.

O=C(NO[C@H](COCc1ccccc1)C(=O)Nc1ccc(F)cc1)c1cc(C(F)(F)F)cc(C(F)(F)F)c1 [sff-3-86] was tested, and the “cell viability of HEY A8 CSCs (toxicity)” value (HEY A8 CSCs (HEY A8 SP); compound 5 μM, 48 h) was “significantly decreased the cell viability” and the “Annexin V positive cells, CSCs” value (HEY A8 CSCs [3]) was 30.4%.

CC(C)COC(=O)[C@@H](COCc1ccccc1)ONC(=O)c1cc(C(F)(F)F)cc(C(F)(F)F)c1 [sff-3-87] was tested, and the “cell viability of HEY A8 CSCs (toxicity)” value (HEY A8 CSCs (HEY A8 SP); compound 5 μM, 48 h) was “significantly decreased the cell viability”.

O=C(NO[C@H](COCc1ccccc1)C(=O)Nc1ccccc1)c1ccc(C(F)(F)F)cc1 [sff-3-91] was tested, and the “cell viability of HEY A8 CSCs (toxicity)” value (HEY A8 CSCs (HEY A8 SP); compound 5 μM, 48 h) was “significantly decreased the cell viability”.

With CC(OCc1ccccc1)[C@@H](ONC(=O)c1cc(C(F)(F)F)cc(C(F)(F)F)c1)C(=O)Nc1ccccc1 (stereo partly shown) [sff-3-98-2] the “cell viability of HEY A8 CSCs (toxicity)” value (HEY A8 CSCs (HEY A8 SP); compound 5 μM, 48 h) was “significantly decreased the cell viability”.

In the case of CC(C)(C)OC[C@@H](ONC(=O)c1cc(C(F)(F)F)cc(C(F)(F)F)c1)C(=O)Nc1ccccc1 [sff-3-100], the “cell viability of HEY A8 CSCs (toxicity)” value (HEY A8 CSCs (HEY A8 SP); compound 5 μM, 48 h) is reported as “significantly decreased the cell viability”.

With CC(C)(C)Oc1ccc(C[C@@H](ONC(=O)c2cc(C(F)(F)F)cc(C(F)(F)F)c2)C(=O)Nc2ccccc2)cc1 [sff-3-101] the “cell viability of HEY A8 CSCs (toxicity)” value (HEY A8 CSCs (HEY A8 SP); compound 5 μM, 48 h) was “significantly decreased the cell viability”.
